The test system of assay [1] is GDF15. Description: Multiplex serum biomarker analysis: GDF15 level versus metformin use and dose. Particulars: serum of people taking varying doses of metformin; FIG. 2. The assay is classed as in vivo, human.
The test system of the next assay is GDF15 mRNA. The experiment in a line: GDF15 messenger RNA expression in primary hepatocytes (BeadChip). Type of assay: cell-based, mouse. Particulars: primary C57Bl6 hepatocytes, metformin 0.5 mM versus vehicle; P=0.003. On the procedure:
To further understand the link between metformin and GDF15 levels, in vitro experiments were conducted using mouse hepatocytes. Primary hepatocytes from 4 different C57Bl6 wild-type male mice were isolated by collagenase digestion as previously described^14. Briefly, cells were plated on 12-well collagen-coated plates overnight in William's Media E containing 10% fetal bovine serum (FBS) and 1% antibiotic-antimycotic. […] Media was then snap frozen and stored at −80° C. for later analyses, and cells were harvested in cell lysis buffer for assessment of total protein or RNA.
GDF15 release into the media was measured using a commercially available ELISA kit (R&D Systems, Minneapolis, Minn.) and expressed per mg of hepatocyte protein. Total RNA was isolated using the Trizol plus RNA Purification kit (Ambion), concentrated with Speedvac (Thermo), and then quantified using Quant-IT RiboGreen (LifeTech). Total RNA was then reverse transcribed and amplified using the Illumina TotalPrep RNA Amplification Kit (LifeTech) according to the manufacturer's protocol. Samples were hybridized to the Illumina Mouse Ref-8 v2.0 complementary DNA BeadChip and scanned on the iScan System (Illumina). The raw sample probe profile and control probe profile were exported from GenomeStudio version 1.9.0 (Illumina). […]

The subject of assay [2] is GDF15. Description: Acute metformin injection, serum GDF15 in C57bl6 mice. The assay is classed as in vivo, mouse. Particulars: 250 mg/kg intraperitoneally, male C57bl6 mice, versus saline; P<0.05. How it is done:
(§1) For the acute experiments, 12 (i.e. 6 per group) 20-week old male C57bl6 mice (Jackson Laboratories) were fasted for 12 hours then allowed to feed ad libitum for 2 hours prior to injection with either metformin (250 mg/kg in 10 μl/g body weight saline) or vehicle (10 μl/g body weight saline) intraperitoneally. Blood was collected 90 minutes later by tail vein bleed, and serum was assayed for GDF15 levels using the Elisa described above (R&D Systems, Minneapolis, Minn.). […] Fed bloods were sampled by tail vein bleed from the animals at the end of the treatment period and serum GDF15 measured as above. Animal experiments were all approved by the McMaster University Animal Ethics Committee.

Assay [3] concerns GDF15. Description: Chronic metformin in high-fat diet, serum GDF15 in obese C57bl6 mice. Conditions: obese insulin-resistant mice, 2.5 g/kg metformin in 60% high-fat diet for 6 weeks, versus untreated controls; P<0.05. Type of assay: in vivo, mouse. On the procedure:
as §1

The nature of assay [4]: Outcomes during follow-up of biomarker study participants by baseline metformin use.
Where [5] appears, read: share of the 2317 participants on metformin at baseline.

Each structure is given as a SMILES string.

In the case of `CN(C)C(=N)NC(=N)N` [Metformin, metformin], the “mean concentration of GDF15 by metformin dose” value with GDF15 [1] is “rose with progressively higher doses”. Moreover, in the assay with GDF15 mRNA, the “increase in GDF15 mRNA” value turned out to be 1.6 fold. Moreover, the “90 minute serum levels of GDF 15” value in the assay with GDF15 [2] is “significantly increased”. For the same molecule, the “serum GDF 15 levels after chronic treatment” value with GDF15 [3] is on record as “significantly increased”. Besides, in assay [4] (participants on metformin at baseline, N 2317, P 0.008 vs no metformin), the “Expanded Composite CV Outcome during follow-up, number of participants” value is given as 622. Moreover, the “Death during follow-up, number of participants” value in assay [4] (participants on metformin at baseline, N 2317, P 0.01 vs no metformin) is listed as 331. Moreover, the “Composite CV Outcome during follow-up, number of participants” value in assay [4] (participants on metformin at baseline, N 2317, median follow-up 6.2 years, P 0.007 vs no metformin) amounted to 346. In addition, in assay [4] (setting [5]), the “Composite CV Outcome during follow-up, value in parentheses” value is “(14.9)”; the “Death during follow-up, value in parentheses” value is on record as “(14.3)”; the “Expanded Composite CV Outcome during follow-up, value in parentheses” value is recorded as “(26.8)”.

The values above are taken from patent US10975434B2, “Growth differentiation factor 15 as biomarker for metformin” (Sanofi-Aventis Deutschland GmbH, priority 2015, dated 2021).
